Source: US6583154B1, “Compounds and methods which modulate feeding behavior and related diseases” (Amgen Inc., priority 1998, dated 2003)
Counter-ions that a name gives are not always drawn.

Tested on: Male BALB-C mice
Experiment: IP administration of compounds in fasted male BALB-C mice, 2 hr food intake
Type: in vivo
Settings: Mus musculus; male BALB-C mice fasted 18-20 hr; 30 mg/kg (ip) in 2% tween; food given after 30 min, weighed 2 hr later; vs vehicle; read-out: inhibition of feeding (2 hr food intake)
Text: Protocol For IP Administration Of Compounds In Male BALB-C Mice.
Male BALB-C mice (20-25 g)were obtained from Charles Rivers (Wilmington, Mass.) and were given at least a one week acclimation period to Amgen's animal care facilities. Animals were housed 10/cage and were provided ad libitum food and water. For testing, mice were fasted for 18-20 hr (overnight) prior to the start of the experiment. On the day of the experiment, mice were removed from group housing and placed into individual cages (without food). Test compounds or vehicle was then administered via the intraperitoneal (i.p.) route of administration. Test compounds were suspended in a 2% tween solution; the 2% tween solution was used as the vehicle treatment (control group). Group sizes for each treatment were 6-8 animals. After 30 min, premeasured food was placed into the cages. Two hours later, the food was weighed again. The difference between 2 hr weight and the premeasured weight was taken as 2 hr food intake.

Row | Structure (SMILES) | inhibition in vivo at 30 mg/kg [%]
1 | Cc1nc(N2CCCC2)c2[nH]c(-c3ccccc3)cc2n1 [Example 9, 2-Methyl-6-phenyl-4-pyrrolidinylpyrrolo[3,2-d]pyrimidine] | ≥ 10
2 | c1ccc(-c2cc3ncnc(N4CCCCC4)c3[nH]2)cc1 [Example 30, 6-Phenyl-4-piperidylpyrrolo[3,2-d]pyrimidine Hydrochloride] | ≥ 10
3 | Cc1nc(N2CCCCC2)c2sc(-c3ccccc3)cc2n1 [Example 32, 2-Methyl-6-phenyl-4-piperidylthiopheno[3,2-d]pyrimidine Hydrochloride] | ≥ 10
4 | Cc1nc(N2CCCCC2)c2sc(-c3ccc(Cl)cc3)cc2n1 [Example 33, 6-(4-Chlorophenyl)-2-methyl-4-piperidylthiopheno[3,2-d]pyrimidine Hydrochloride] | ≥ 10
5 | Cc1nc(N2CC=CC2)c2[nH]c(-c3ccccc3)cc2n1 [Example 61, 2-Methyl-6-phenyl-4-(pyrrolinyl)pyrrolo[3,2-d]pyrimidine Hydrochloride Monohydrate] | ≥ 10
6 | CCC1CCCCN1c1nc(C)nc2cc(-c3ccccc3)[nH]c12 (stereo not shown) [Example 64, 2-Methyl-6-phenyl-4-(2-ethylpiperidinyl)pyrrolo[3,2-d]pyrimidine Hydrochloride Hydrate] | ≥ 10
7 | CCOC(=O)c1[nH]c(-c2ccc(F)cc2)cc1N [Example 73a, ethyl 3-amino-5-(4-fluorophenyl)pyrrole-2-carboxylate] | ≥ 10
8 | Cc1nc(N2CCCCC2)c2[nH]c(-c3ccccn3)cc2n1 [Example 77, 2-Methyl-4-piperidyl-6-(2-pyridyl)pyrrolo[3,2-d]pyrimidine Hydrochloride Hydrate] | ≥ 10
9 | Cc1nc(N2CCCCC2)c2[nH]c(C34C[C@H]5C[C@@H](C3)C[C@@H](C4)C5)cc2n1 [Example 81d, 6-Adamantanyl-2-methyl-4-piperidylpyrrolo[3,2-d]pyrimidine Hydrochloride Monohydrate] | ≥ 10
10 | Cc1nc(N2CCCCC2)c2[nH]c(-c3ccc(Cl)cc3)cc2n1.Cl [Example 92d, 6-(4-Chlorophenyl)-2-methyl-4-piperidylpyrrolo[3,2-d]pyrimidine Hydrochloride] | ≥ 10
11 | CCCNc1nc(N2CCCCC2)c2[nH]c(-c3ccccc3)cc2n1 [Example 93, (6-Phenyl-4-piperidylpyrrolo[3,2-d]pyrimidine-2-yl)propylamine Hydrochloride] | ≥ 10
12 | CC1=C(c2cc3nc(C)nc(N4CCCCC4)c3[nH]2)CCC1.Cl [Example 98, 2-Methyl-6-(2-methylcyclopent-1-enyl)-4-piperidylpyrrolo[3,2-d]pyrimidine Hydrochloride] | ≥ 10
13 | Cc1nc(N2CCCCC2)c2[nH]c(-c3cccc(F)c3)cc2n1 [Example 103, 6-(3-Fluorophenyl)-2-methyl-4-piperidylpyrrolo[3,2-d]pyrimidine Hydrochloride Monohydrate] | ≥ 10
14 | Cc1nc(N2CCCCC2)c2[nH]c(-c3cccc(C(F)(F)F)c3)cc2n1 [Example 107, 2-Methyl-4-piperidyl-6-[3-(trifluoromethyl)phenyl]pyrrolo[3,2-d]pyrimidine Hydrochloride Monohydrate] | ≥ 10
15 | Cc1nc(N2CCCCC2)c2[nH]c(-c3ccc4c(c3)OCO4)cc2n1 [Example 114, 5-[2-Methyl-4-piperidylpyrrolo[4,5-d]pyrimidin-6-yl]-2H-benzo[d]1,3-dioxolane Hydrochloride Monohydrate] | ≥ 10
16 | Cc1nc(N2CCCCC2)c2[nH]c(-c3ccc4c(c3)OCCO4)cc2n1 [Example 125, 6-(2-Methyl-4-piperidylpyrrolo[4,5-d]pyrimidin-6-yl)-2H,3H-benzo[e]1,4-dioxane Hydrochloride Monohydrate] | ≥ 10
17 | Cc1nc(N2CCCCC2)c2[nH]c(-c3ccc4c(c3)CCC4)cc2n1 [Example 130, 6-Indan-5-yl-2-methyl-4-piperidylpyrrolo[3,2-d]pyrimidine Hydrochloride Monohydrate] | ≥ 10
18 | Cc1nc(N2CCCCC2)c2[nH]c(-c3ccc4c(c3)CCO4)cc2n1 [Example 131, 5-[2-Methyl-4-piperidylpyrrolo[4,5-d]pyrimidin-6-yl]-2,3-dihydrobenzo[b]furan Hydrochloride Hydrate] | ≥ 10
19 | Cc1nc(N2CC=CC2)c2[nH]c(-c3ccc(F)cc3)cc2n1 [Example 199, 6-(4-Fluorophenyl)-2-methyl-4-(3-pyrrolinyl)pyrrolo[3,2-d]pyrimidine Hydrochloride Hydrate] | ≥ 10
20 | Cc1nc(N2CCc3ccccc32)c2[nH]c(-c3ccccc3)cc2n1 [Example 215, 4-Indolinyl-2-methyl-6-phenylpyrrolo[3,2-d]pyrimidine Hydrochloride Hydrate] | ≥ 10
21 | Cc1nc(-n2cccn2)c2[nH]c(-c3ccccc3)cc2n1 [Example 218, 2-Methyl-6-phenyl-4-pyrazolypyrrolo[3,2-d]pyrimidine Hydrochloride Hydrate] | ≥ 10

Tested on: Long-Evans male rats
Experiment: IP administration of compounds in fasted Long-Evans male rats, 2 hr food intake
Type: in vivo
Settings: Rattus norvegicus; male Long Evans rats fasted 18-20 hr; 30 mg/kg (ip) in 2% tween; food given after 30 min, weighed 2 hr later; vs vehicle; read-out: inhibition of feeding (2 hr food intake)
Procedure: Protocol for IP Administration of Compounds in Fasted Long-Evans Male Rats
Male Long Evans rats (85-100 g)were obtained from Harlan (Indianapolis, Ind.) and were given at least a one week acclimation period to Ambients animal care facilities. Animals were individually housed and were provided ad libitum food and water. For testing, rats were fasted for 18-20 hr (overnight) prior to the start of the experiment. On the test day, test compounds or vehicle was administered via the intraperitoneal (i.p.) route of administration. Test compounds were suspended in a 2% tween solution; the 2% tween solution was used as the vehicle treatment (control group). Group sizes for each treatment were 6-8 animals. After 30 min, premeasured food was placed into the cages. Two hours later, the food was weighed again. The difference between 2 hr weight and the premeasured weight was taken as 2 hr food intake.

Row | Structure (SMILES) | inhibition in vivo at 30 mg/kg [%]
22 | Cc1nc(N2CCCCC2)c2sc(-c3ccccc3)cc2n1 [Example 32, 2-Methyl-6-phenyl-4-piperidylthiopheno[3,2-d]pyrimidine Hydrochloride] | ≥ 10
23 | Cc1nc(N2CCCCC2)c2sc(-c3ccc(Cl)cc3)cc2n1 [Example 33, 6-(4-Chlorophenyl)-2-methyl-4-piperidylthiopheno[3,2-d]pyrimidine Hydrochloride] | ≥ 10
24 | Cc1nc(N2CC=CC2)c2[nH]c(-c3ccccc3)cc2n1 [Example 61, 2-Methyl-6-phenyl-4-(pyrrolinyl)pyrrolo[3,2-d]pyrimidine Hydrochloride Monohydrate] | ≥ 10
25 | Cc1nc(N2CCCCC2)c2[nH]c(-c3ccc(O)cc3)c(C)c2n1 [Example 137, 4-[2,7-Dimethyl-4-piperidylpyrrolo[4,5-d]pyrimidin-6-yl]phenol Hydrochloride Hydrate] | ≥ 10
26 | Cc1nc(N2CCOCC2)c2[nH]c(-c3ccc(F)c(F)c3)cc2n1 [Example 141, 4-[6-(3,4-Difluorophenyl)-2-methylpyrrolo[2,3-e]pyrimidin-4-yl]morpholine Hydrochloride] | ≥ 10
27 | Cc1nc(N2CCCCC2)c2[nH]c(-c3ccc(S(C)(=O)=O)cc3)cc2n1 [Example 142, 1-[2-Methyl-4-piperidylpyrrolo[4,5-d]pyrimidin-6-yl]-4-(methylsulfonyl)benzene Hydrochloride Monohydrate] | ≥ 10
28 | COc1cc(-c2cc3nc(C)nc(N4CCCCC4)c3[nH]2)cc(OC)c1OC.Cl [Example 143, 1,2,3-Trimethoxy-5-[2-methyl-4-piperidylpyrrolo[4,5-d]pyrimidin-6-yl]benzene Hydrochloride] | ≥ 10
29 | CCCCc1cc2nc(C)nc(N3CCCCC3)c2[nH]1 [Example 148, 6-Butyl-2-methyl-4-piperidylpyrrolo[3,2-d]pyrimidine Hydrochloride] | ≥ 10
30 | CC(=O)c1ccc(-c2cc3nc(C)nc(N4CCCCC4)c3[nH]2)cc1 [Example 150, 1-[4-(2-Methyl-4-piperidylpyrrolo[4,5-d]pyrimidin-6-yl)phenyl]ethan-1-one Hydrochloride Hydrate] | ≥ 10
31 | Cc1nc(N2CCCCC2)c2[nH]c(-c3ccc4ccccc4c3)cc2n1 [Example 160, 2-Methyl-6-(2-naphthyl)-4-piperidylpyrrolo[3,2-d]pyrimidine Hydrochloride Hydrate] | ≥ 10
32 | Cc1nc(N2CCCCC2)c2[nH]c(CCc3ccccc3)cc2n1 [Example 168, 2-Methyl-6-(2-phenylethyl)-4-piperidylpyrrolo[3,2-d]pyrimidine Hydrochloride Hydrate] | ≥ 10
33 | Cc1nc(N2CC=CC2)c2[nH]c(-c3ccc(Cl)c(Cl)c3)cc2n1 [Example 200d, 6-(3,4-Dichlorophenyl)-2-methyl-4-(3-pyrrolinyl)pyrrolo[3,2-d]pyrimidine Hydrochloride Hydrate] | ≥ 10
34 | CCc1nc(N2CCc3ccccc3C2)c2[nH]c(-c3ccccc3)cc2n1 [Example 202, 2-Ethyl-6-phenyl-4-(2-1,2,3,4-tetrahydroisoquinolyl)pyrrolo[3,2-d]pyrimidine Hydrochloride Monohydrate] | ≥ 10
35 | CN(C)c1nc(N2CCCCC2)c2[nH]c(-c3ccccc3)cc2n1 [Example 203, Hydrochloride Hydrate] | ≥ 10
36 | Fc1ccc(-c2cc3nc(C4CC4)nc(N4CCCCC4)c3[nH]2)cc1 [Example 209c, 2-Cyclopropyl-6-(4-fluorophenyl)-4-piperidylpyrrolo[3,2-d]pyrimidine Hydrochloride Hydrate] | ≥ 10
37 | Cc1nc(N2CC=CC2)c2oc(-c3ccccc3)cc2n1 [Example 216c, 2-Methyl-6-phenyl-4-(3-pyrrolinyl)furano[3,2-d]pyrimidine Hydrochloride Hydrate] | ≥ 10

Tested on: not given
Experiment: not given
Settings: not given

Row | melting point | Structure (SMILES)
38 | 253.8 to 255.2 °C (dec.) | Cc1nc(N2CCCCC2)c2[nH]c(-c3ccc(Cl)cc3)cc2n1.Cl [Example 92d, 6-(4-Chlorophenyl)-2-methyl-4-piperidylpyrrolo[3,2-d]pyrimidine Hydrochloride]
39 | 224.5 to 226 °C | CC1=C(c2cc3nc(C)nc(N4CCCCC4)c3[nH]2)CCC1.Cl [Example 98, 2-Methyl-6-(2-methylcyclopent-1-enyl)-4-piperidylpyrrolo[3,2-d]pyrimidine Hydrochloride]
40 | 275 to 277 °C | COc1cc(-c2cc3nc(C)nc(N4CCCCC4)c3[nH]2)cc(OC)c1OC.Cl [Example 143, 1,2,3-Trimethoxy-5-[2-methyl-4-piperidylpyrrolo[4,5-d]pyrimidin-6-yl]benzene Hydrochloride]
